According to PMC10601989, “Charge and lipophilicity are required for effective block of the hair-cell mechano-electrical transducer channel by FM1-43 and its derivatives” (Frontiers in Cell and Developmental Biology, 2023):

system: T1, hair-cell mechano-electrical transducer (MET) channel (native, mouse cochlear outer hair cells); experiment: whole-cell patch clamp of MET currents, fluid-jet bundle stimulation, fractional block; type: cell-based; settings: -64 mV; extracellular superfusion, 1.3 mM Ca2+, pH 7.48, room temperature; permeant voltage-dependent block
T1 construct: gene Tmc1; native full-length MET complex in outer hair cells of P2 organotypic cochlear cultures kept 1-2 days in vitro; TMC1 and/or TMC2 pore with TMIE (subunits named only in the discussion; copy numbers from the C. elegans cryo-EM structure it cites); with Transmembrane inner ear expressed protein

SMILES	% block at 10 μM
CCCCN(CCCC)c1ccc(/C=C/c2cc[n+](CCC[N+](CC)(CC)CC)cc2)cc1 [compound 13550, FM1-43]	~ 30%
CCCCN(CCCC)c1ccc(/C=C/c2cc[n+](CCCCC[N+](CC)(CC)CC)cc2)cc1 [compound 13667, 13667]	> 80%
CCCCN(CCCC)c1ccc(/C=C/c2cc[n+](CCCC(=O)OCC)cc2)cc1 [compound 13551, 13551]	> 80%
CCCCN(CCCC)c1ccc(/C=C/c2cc[n+](CCCC[N+](CC)(CC)CC)cc2)cc1 [compound 13669, 13669]	> 80%
